Experimental data reported in patent US8530445B2, “Combinations of sapacitabine or CNDAC with DNA methyltransferase inhibitors such as decitabine and procaine” (Cyclacel Limited, priority 2008, dated 2013).
Where two headings read alike, the source gives them in different places.

Columns and labels:
[1] = test system: colon cancer; details: model of colon cancer; cited from earlier work
[2] = phase I, patients with a variety of cancers; cited from earlier work
[3] = test system: HL60 cells; assay: Immunoblotting of cell lysates for cleaved PARP; type: cell-based; details: HL-60; 0.13 μM azacitidine, 0.13 μM CNDAC; 48 h-96 h total treatment
Protocol: Samples were collected at various times (indicated) after CNDAC addition. Cells were lysed, fractionated by SDS-PAGE, transferred to nitrocellulose and probed for cleaved PARP (a marker of apoptosis). Data is representative of two independent experiments.
HL-60 cells were treated with DMSO, 0.13 μM azacitidine, 0.13 μM CNDAC or both agents (AC). The schedule involved 24 h azacitidine or DMSO pretreatment followed by the addition of CNDAC or DMSO for the indicated times. Cells were harvested after 48 h-96 h total treatment time. The resulting lysates (20 μg) were resolved on 12% acrylamide Bis-Tris gels, transferred to nitrocellulose membranes and probed with the antibodies shown in FIG. 3. […] Cleaved PARP was also seen in the combination treatment.

[4] = test system: HL60 cells; assay: Cell cycle analysis (propidium iodide, flow cytometry); type: cell-based; details: azacitidine 128 nM 72 and 96 hours, CNDAC 133 nM by 48 hours
Protocol: (§1) (A) HL60 cells were treated with 128 nM azacitidine for 24 hours followed by 128 nM azacitidine and 133 nM CNDAC for a further 48 hours. Cells were fixed and DNA stained with propidium iodide. Single agent controls were also included. (B) HL60 cells were treated with 128 nM azacitidine for 24 hours followed by 128 nM azacitidine and 133 nM CNDAC for a further 48 hours. Cells were stained with annexin V that detected apoptotic cells and propidium iodide to detect viable cells. Single agent controls were also included. Data is the average of two samples and representative of at least two independent experiments.
(A) HL60 cells were treated with 128 nM azacitidine for 24 hours followed by 128 nM azacitidine and 133 nM CNDAC for a further 72 hours. Cells were fixed and DNA stained with propidium iodide. Single agent controls were also included. […] Cells were stained with annexin V that detected apoptotic cells and propidium iodide to detect viable cells. […]
For combination analysis, cells were treated with azacitidine for 24 hours followed by a further 48 or 72 hours with azacitidine and CNDAC. […] Prior to analysis cells were washed twice in PBS containing 1% BSA followed by staining with propidium iodide (50 μg/ml) and ribonuclease A (50 μg/ml) in PBS containing 0.1% Triton X-100 and the cell cycle profile was determined by flow cytometry.

[5] = test system: HL60 cells; assay: Annexin V staining (apoptosis, flow cytometry); type: cell-based; details: for apoptotic cells (annexin V): 96 hours total treatment, azacitidine 128 nM, CNDAC 133 nM for 72 hours; for proportion of apoptotic cells (annexin V, in words): azacitidine 72 and 96 hours, CNDAC 48 or 72 hours
Protocol: as §1
as §1, with “72” for “48”
Single agent treatments were also performed as controls.

[6] = test system: cell line that is resistant to cytarabine; details: cited from earlier work

Structure (SMILES) | anticancer activity [1] | dose limiting toxicity [2] | tolerability [2] | induction of cleaved PARP (marker of apoptosis) [3] | effect on cell cycle profile (in words) [4] | apoptotic cells (annexin V) [5] [%] | proportion of apoptotic cells (annexin V, in words) [5] | IC50 ([6]; after 5-azacitidine (upregulation of dCK)) [µM] | IC50 ([6]; before 5-azacitidine) [µM]
CCCCCCCCCCCCCCCC(=O)Nc1ccn(C2O[C@H](CO)[C@@H](O)[C@@H]2C#N)c(=O)n1 (stereo partly drawn) [(I), 1-(2-C-cyano-2-dioxy-β-D-arabino-pentofuranosyl)-N^4-palmitoyl cytosine] | strong anticancer activity | myelosuppression | well tolerated | – | – | – | – | – | –
N#C[C@H]1[C@H](O)[C@@H](CO)O[C@H]1n1ccc(N)nc1=O [CNDAC, 1-(2-C-Cyano-2-deoxy-β-D-arabino-pentafuranosyl)-cytosine] | – | – | – | induced cleaved PARP at later time points | accumulation of cells in G2/M | 16.5 | little effect | – | –
Nc1ncn([C@@H]2O[C@H](CO)[C@@H](O)[C@H]2O)c(=O)n1 [azacitidine, 4-amino-1-β-D-ribofuranosyl-s-triazin-2(1H)-one, reference compound] | – | – | – | small induction in cleaved PARP at early time points | accumulation of cells in sub-G1, G2/M, and >G2/M | 30.5 | small increase in the proportion of apoptotic cells | – | –
Nc1ccn([C@@H]2O[C@H](CO)[C@@H](O)[C@@H]2O)c(=O)n1 [cytarabine] | – | – | – | – | – | – | – | 0.55 | 12.5
